The text below walks through data of ChEMBL document CHEMBL3991601, “The target landscape of clinical kinase drugs” (Science, 2017).

The target of assay [1] is T1, Peroxisomal acyl-coenzyme A oxidase 1 (Homo sapiens, UniProt Q15067).
T1 sequence (Q15067 whole entry): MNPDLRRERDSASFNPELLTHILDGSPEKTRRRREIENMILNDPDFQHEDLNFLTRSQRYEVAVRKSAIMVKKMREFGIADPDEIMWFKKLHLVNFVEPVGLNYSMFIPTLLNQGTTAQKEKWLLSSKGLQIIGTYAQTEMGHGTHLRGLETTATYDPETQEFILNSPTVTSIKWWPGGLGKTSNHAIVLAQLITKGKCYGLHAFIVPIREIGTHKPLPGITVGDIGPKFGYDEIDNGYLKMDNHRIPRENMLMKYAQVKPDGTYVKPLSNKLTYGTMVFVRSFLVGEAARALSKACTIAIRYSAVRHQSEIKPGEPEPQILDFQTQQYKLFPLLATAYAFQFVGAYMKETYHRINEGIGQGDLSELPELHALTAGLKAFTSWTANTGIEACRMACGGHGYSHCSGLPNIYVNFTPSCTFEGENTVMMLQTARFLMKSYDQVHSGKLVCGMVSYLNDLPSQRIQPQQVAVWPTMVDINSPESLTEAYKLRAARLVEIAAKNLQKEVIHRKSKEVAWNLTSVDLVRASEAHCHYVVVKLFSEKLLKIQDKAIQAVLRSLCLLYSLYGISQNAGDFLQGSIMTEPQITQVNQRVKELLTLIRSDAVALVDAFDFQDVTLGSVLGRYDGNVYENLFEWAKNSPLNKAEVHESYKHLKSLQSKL

The target of a further assay is Actin-related protein 2 (Homo sapiens, UniProt P61160).
In assay [2] the target is Cyclin-dependent kinase 3 (Homo sapiens, UniProt Q00526).
For the next assay, the target named is T2, dCTP pyrophosphatase 1 (Homo sapiens, UniProt Q9H773).
T2 sequence (Q9H773 whole entry): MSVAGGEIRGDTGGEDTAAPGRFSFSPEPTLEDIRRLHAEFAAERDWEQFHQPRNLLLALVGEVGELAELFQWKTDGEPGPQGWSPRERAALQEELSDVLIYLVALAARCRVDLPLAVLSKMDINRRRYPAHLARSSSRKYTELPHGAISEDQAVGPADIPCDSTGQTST

Assay [3] has as its target T3, ATP-dependent RNA helicase DHX30 (Homo sapiens, UniProt Q7L2E3).
T3 sequence (Q7L2E3 whole entry): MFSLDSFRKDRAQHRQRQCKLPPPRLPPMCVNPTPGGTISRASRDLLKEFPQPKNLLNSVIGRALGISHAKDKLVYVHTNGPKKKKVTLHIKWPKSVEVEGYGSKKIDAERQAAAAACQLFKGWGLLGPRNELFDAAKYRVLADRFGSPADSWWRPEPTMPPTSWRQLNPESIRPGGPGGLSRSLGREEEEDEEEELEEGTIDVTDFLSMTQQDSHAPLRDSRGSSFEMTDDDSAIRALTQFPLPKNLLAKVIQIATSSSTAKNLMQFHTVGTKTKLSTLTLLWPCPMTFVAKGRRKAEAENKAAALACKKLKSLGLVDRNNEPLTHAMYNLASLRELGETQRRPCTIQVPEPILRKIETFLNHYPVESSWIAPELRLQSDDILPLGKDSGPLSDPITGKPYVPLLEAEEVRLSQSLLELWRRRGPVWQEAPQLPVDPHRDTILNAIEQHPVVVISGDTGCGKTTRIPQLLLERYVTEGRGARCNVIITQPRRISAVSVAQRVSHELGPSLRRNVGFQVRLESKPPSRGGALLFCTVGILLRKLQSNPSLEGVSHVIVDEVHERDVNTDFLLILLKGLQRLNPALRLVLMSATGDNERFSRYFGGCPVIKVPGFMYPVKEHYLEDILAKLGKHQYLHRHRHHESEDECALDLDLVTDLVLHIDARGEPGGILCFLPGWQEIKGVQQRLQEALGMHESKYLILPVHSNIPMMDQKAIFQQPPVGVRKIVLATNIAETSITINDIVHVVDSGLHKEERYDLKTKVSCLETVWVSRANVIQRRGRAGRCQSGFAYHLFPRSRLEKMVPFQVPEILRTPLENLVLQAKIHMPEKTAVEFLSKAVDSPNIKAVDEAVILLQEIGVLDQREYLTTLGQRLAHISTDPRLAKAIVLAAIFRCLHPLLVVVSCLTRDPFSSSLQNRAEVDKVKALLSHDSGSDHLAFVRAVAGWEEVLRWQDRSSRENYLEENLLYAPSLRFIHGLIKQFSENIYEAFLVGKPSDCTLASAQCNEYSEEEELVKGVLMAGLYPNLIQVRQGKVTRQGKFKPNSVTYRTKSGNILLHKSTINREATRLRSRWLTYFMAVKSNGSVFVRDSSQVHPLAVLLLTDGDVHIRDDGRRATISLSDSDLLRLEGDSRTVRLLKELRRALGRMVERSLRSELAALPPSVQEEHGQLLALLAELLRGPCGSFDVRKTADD

The target of assay [4] is Eukaryotic translation initiation factor 2-alpha kinase 1 (Homo sapiens, UniProt Q9BQI3).
The target in a further assay is T4, Rab-like protein 3 (Homo sapiens, UniProt Q5HYI8).
T4 sequence (Q5HYI8 whole entry): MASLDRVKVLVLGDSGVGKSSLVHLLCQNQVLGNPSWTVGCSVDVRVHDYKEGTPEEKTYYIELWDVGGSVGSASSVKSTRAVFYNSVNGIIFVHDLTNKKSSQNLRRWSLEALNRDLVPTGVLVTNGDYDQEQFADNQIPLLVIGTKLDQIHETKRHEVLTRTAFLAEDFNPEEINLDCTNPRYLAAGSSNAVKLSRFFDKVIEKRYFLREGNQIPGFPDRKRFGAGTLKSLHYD

In assay [5] the target is Serine/threonine-protein kinase SIK2 (Homo sapiens, UniProt Q9H0K1).

The source made the active and inactive calls.
Further: in the data inactive means no Kd found up to 30 µM.

Sequence of Cyclin-dependent kinase 3 (Q00526 whole entry): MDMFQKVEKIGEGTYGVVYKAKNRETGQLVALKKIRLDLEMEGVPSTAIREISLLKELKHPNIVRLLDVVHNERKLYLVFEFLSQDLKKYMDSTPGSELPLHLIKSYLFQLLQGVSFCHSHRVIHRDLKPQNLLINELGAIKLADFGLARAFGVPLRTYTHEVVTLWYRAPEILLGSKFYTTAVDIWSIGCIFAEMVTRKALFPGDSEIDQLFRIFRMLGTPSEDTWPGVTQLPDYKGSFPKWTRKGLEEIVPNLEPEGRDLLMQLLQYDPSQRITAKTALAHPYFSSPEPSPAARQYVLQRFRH
Sequence of Serine/threonine-protein kinase SIK2 (Q9H0K1 whole entry): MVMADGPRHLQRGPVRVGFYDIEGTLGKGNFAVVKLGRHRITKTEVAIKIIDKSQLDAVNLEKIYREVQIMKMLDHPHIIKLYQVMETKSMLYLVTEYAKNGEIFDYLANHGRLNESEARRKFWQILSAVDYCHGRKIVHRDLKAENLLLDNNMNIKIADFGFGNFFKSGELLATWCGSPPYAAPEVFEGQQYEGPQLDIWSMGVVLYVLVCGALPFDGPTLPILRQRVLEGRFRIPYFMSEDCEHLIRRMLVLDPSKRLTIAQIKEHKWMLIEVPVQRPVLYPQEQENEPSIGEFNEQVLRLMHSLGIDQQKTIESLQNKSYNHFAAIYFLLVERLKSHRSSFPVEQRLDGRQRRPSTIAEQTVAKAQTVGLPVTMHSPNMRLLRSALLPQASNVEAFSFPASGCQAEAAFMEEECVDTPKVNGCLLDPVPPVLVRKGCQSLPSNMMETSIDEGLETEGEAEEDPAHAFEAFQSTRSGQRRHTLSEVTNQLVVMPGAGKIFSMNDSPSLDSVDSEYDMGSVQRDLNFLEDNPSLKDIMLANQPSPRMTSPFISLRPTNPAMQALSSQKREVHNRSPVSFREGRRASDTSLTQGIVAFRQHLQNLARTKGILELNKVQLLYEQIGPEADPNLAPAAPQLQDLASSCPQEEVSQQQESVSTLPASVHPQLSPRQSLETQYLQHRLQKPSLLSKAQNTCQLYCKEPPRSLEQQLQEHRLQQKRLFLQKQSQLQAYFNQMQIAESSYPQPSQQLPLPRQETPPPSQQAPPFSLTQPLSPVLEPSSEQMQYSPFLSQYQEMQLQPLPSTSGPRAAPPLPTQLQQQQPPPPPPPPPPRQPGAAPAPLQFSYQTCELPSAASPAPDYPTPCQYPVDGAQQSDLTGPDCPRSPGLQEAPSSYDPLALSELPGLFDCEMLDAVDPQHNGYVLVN
Sequence of Eukaryotic translation initiation factor 2-alpha kinase 1 (Q9BQI3 whole entry): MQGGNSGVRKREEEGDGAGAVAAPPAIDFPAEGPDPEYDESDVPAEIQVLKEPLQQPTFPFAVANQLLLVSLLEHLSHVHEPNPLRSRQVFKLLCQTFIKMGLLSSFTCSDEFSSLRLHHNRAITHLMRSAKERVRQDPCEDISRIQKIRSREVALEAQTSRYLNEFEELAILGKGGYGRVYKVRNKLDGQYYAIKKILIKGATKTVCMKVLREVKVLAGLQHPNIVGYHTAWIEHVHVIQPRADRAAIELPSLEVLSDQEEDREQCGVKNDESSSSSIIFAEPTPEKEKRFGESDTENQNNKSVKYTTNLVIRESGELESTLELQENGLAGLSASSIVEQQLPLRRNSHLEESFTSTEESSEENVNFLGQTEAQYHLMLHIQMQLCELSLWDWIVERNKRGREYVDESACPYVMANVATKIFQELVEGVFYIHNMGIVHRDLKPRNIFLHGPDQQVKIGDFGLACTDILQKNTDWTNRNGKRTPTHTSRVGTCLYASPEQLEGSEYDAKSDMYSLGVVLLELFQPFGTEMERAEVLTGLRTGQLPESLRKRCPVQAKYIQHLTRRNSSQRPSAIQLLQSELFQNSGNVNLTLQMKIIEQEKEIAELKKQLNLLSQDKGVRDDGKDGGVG

Consider `NC(=O)Nc1cc(-c2cccc(F)c2)sc1C(=O)N[C@H]1CCCNC1` [AZD-7762], for which the Kd (in general, a measure of binding affinity in units of concentration) in assay [1] is > 30 µM (inactive); on Actin-related protein 2 it was > 30 µM (inactive); in assay [2], 0.139 µM (active); on dCTP pyrophosphatase 1, > 30 µM (inactive); in assay [3], > 30 µM (inactive); in assay [4] it was > 30 µM (inactive). The figures for the Kd (on Rab-like protein 3; in assay [5]) were > 30 µM (inactive) and 0.007 µM (active), respectively.
As to `Cn1cnc2c(F)c(Nc3ccc(Br)cc3F)c(C(=O)NOCCO)cc21` [BINIMETINIB], the Kd (in assay [1]; on Actin-related protein 2; in assay [2]; on dCTP pyrophosphatase 1; in assay [3]; in assay [4]) was > 30 µM (inactive) throughout. The Kd (on Rab-like protein 3; in assay [5]) was > 30 µM (inactive) each time.
On to `Cc1cc(Nc2ncc(Cl)c(Nc3ccccc3S(=O)(=O)C(C)C)n2)c(OC(C)C)cc1C1CCNCC1` [CERITINIB], for which the Kd (in assay [1]; on Actin-related protein 2; in assay [2]; at dCTP pyrophosphatase 1; in assay [3]; in assay [4]) was > 30 µM (inactive) each time. The Kd (on Rab-like protein 3; in assay [5]) was > 30 µM (inactive) each time.
Regarding `COc1c(OCCCN2CCOCC2)ccc2c1N=C(NC(=O)c1cnc(N)nc1)N1CCN=C21` [COPANLISIB], the Kd (in assay [1]; on Actin-related protein 2; in assay [2]; at dCTP pyrophosphatase 1; in assay [3]; in assay [4]) was > 30 µM (inactive) each time. In addition, the Kd (on Rab-like protein 3; in assay [5]) was > 30 µM (inactive) each time.
As for `C#Cc1cccc(Nc2ncnc3cc(OC)c(OCCCCCCC(=O)NO)cc23)c1` [CUDC-101], the Kd (in assay [1]; on Actin-related protein 2; in assay [2]; at dCTP pyrophosphatase 1; in assay [3]; in assay [4]) was > 30 µM (inactive) each time. For the same compound, the Kd (at Rab-like protein 3; in assay [5]) was > 30 µM (inactive) throughout.
As for `O=C(Nc1nc2cccc(-c3ccc(CN4CCS(=O)(=O)CC4)cc3)n2n1)C1CC1` [FILGOTINIB], the Kd (in assay [1]; at Actin-related protein 2; in assay [2]; on dCTP pyrophosphatase 1; in assay [3]; in assay [4]) was > 30 µM (inactive) each time. In addition, the Kd (at Rab-like protein 3; in assay [5]) was > 30 µM (inactive) in each case.
In the case of `Cc1cccc(-c2nn3c(c2-c2ccnc4ccc(C(N)=O)cc24)CCC3)n1` [GALUNISERTIB], the Kd (in assay [1]; at Actin-related protein 2; in assay [2]; at dCTP pyrophosphatase 1; in assay [3]; in assay [4]) was > 30 µM (inactive) in each case. In addition, the Kd (on Rab-like protein 3; in assay [5]) was > 30 µM (inactive) in each case.
Take `CCn1cc(-c2ccnc3[nH]c(-c4cccc(CN(C)C)c4)cc23)c(-c2ccc(NC(=O)N(C)C)cc2)n1` [GSK-1070916]: the Kd (in assay [1]; on Actin-related protein 2; in assay [2]; at dCTP pyrophosphatase 1; in assay [3]; in assay [4]) was > 30 µM (inactive) each time. For the same compound, the figures for the Kd (at Rab-like protein 3; in assay [5]) were > 30 µM (inactive) and 0.685 µM (active), respectively.
`CN(C[C@@H]1COCCO1)S(=O)(=O)Nc1ccc2ccc3ncc(-c4cnn(C)c4)cc3c(=O)c2c1` [MK-2461]: the Kd (in assay [1]; on Actin-related protein 2; in assay [2]; at dCTP pyrophosphatase 1; in assay [3]; in assay [4]) was > 30 µM (inactive) throughout. The Kd (at Rab-like protein 3; in assay [5]) was > 30 µM (inactive) throughout.
Turning to `Cn1cc(-c2cnc3ccc4ccc(CS(=O)(=O)NCc5ccccn5)cc4c(=O)c3c2)cn1` [MK-8033], the Kd (in assay [1]; at Actin-related protein 2; in assay [2]; on dCTP pyrophosphatase 1; in assay [3]; in assay [4]) was > 30 µM (inactive) each time. Besides, the Kd (at Rab-like protein 3; in assay [5]) was > 30 µM (inactive) each time.
Regarding `Cc1[nH]c(/C=C2\C(=O)Nc3ccccc32)c(C)c1CCC(=O)O` [ORANTINIB], the Kd (in assay [1]; on Actin-related protein 2; in assay [2]; on dCTP pyrophosphatase 1; in assay [3]; in assay [4]) was > 30 µM (inactive) each time. The Kd (on Rab-like protein 3; in assay [5]) was > 30 µM (inactive) in each case.
For `NC(=O)c1c(OCc2c(F)cc(Br)cc2F)nsc1NC(=O)NCCCCN1CCCC1` [OSI-632], the Kd in assay [1] was > 30 µM (inactive); at Actin-related protein 2 it was > 30 µM (inactive); in assay [2] it was > 30 µM (inactive); at dCTP pyrophosphatase 1 it was > 30 µM (inactive); in assay [3], > 30 µM (inactive); in assay [4] it was 3.57 µM (active). The figures for the Kd (at Rab-like protein 3; in assay [5]) were > 30 µM (inactive) and 0.904 µM (active), respectively.
In the case of `Cc1cnc(NC(=O)Nc2cc(Br)c(C)cc2OC[C@@H]2CNCCO2)cn1` [RABUSERTIB], the Kd (in assay [1]; on Actin-related protein 2; in assay [2]; on dCTP pyrophosphatase 1; in assay [3]; in assay [4]) was > 30 µM (inactive) throughout. Besides, the Kd (at Rab-like protein 3; in assay [5]) was > 30 µM (inactive) throughout.
For the compound `O=c1[nH]ccc2cc(OC3CCNCC3)ccc12` [SAR-407899 FREE BASE], the Kd (in assay [1]; at Actin-related protein 2; in assay [2]; on dCTP pyrophosphatase 1; in assay [3]; in assay [4]) was > 30 µM (inactive) throughout. The Kd (on Rab-like protein 3; in assay [5]) was > 30 µM (inactive) in each case.
